SMILES strings stand for the structures.

One assay concerns the target SGLT1 (Homo sapiens (Human), UniProt P13866). Put plainly: Activity assay of SGLT1: [14C] methyl α-D-glucopyranoside uptake in SGLT1 transiently transferred HEK293 cells. It is filed as cell-based. The following applies: for IC50: SGLT1 transiently transferred HEK293 cells, [14C] methyl α-D-glucopyranoside, 2 hours at 37° C.; for inhibition of SGLT1 (conclusion in words): conclusion from the IC50 table. As for the experimental part: (§1) Activity Assay of SGLT1 and SGLT2:
(§2) The following method was used to determine the inhibitory activity of the compounds of the present invention on SGLT1 and SGLT2. The experimental method is summarized as follows:
(§3) SGLT1 and SGLT2 transiently transferred HEK293 cells (prepared according to the existing literature “Diabetes, 57, 1723-1729, 2008”, wherein cDNA of SGLT1 and SGLT2 was purchased from Origene company) were seeded in a 96-well plate. The density of the cells was 1-1.5×10^4. The cells were cultured at 37° C. and 5% CO2 for 48 hours, and then washed twice with 200 μL sodium-free buffer. 90 μL sodium-containing buffer of the test compound at different concentrations was added to the well. Each test compound was repeated in three wells for each concentration. The cells were cultured at 37° C. for 15 minutes, then 10 μL (in number 0.1 μCi [^14C]) Methyl α-D-glucopyranoside was added to each well of the 96-well plate. The cells were further cultured at 37° C. for 2 hours, then the supernatant was discarded. The cells were washed twice with pre-chilled sodium-free buffer and then dissolved in 100 μL NaOH (200 mM). 100 μL scintillation solution was added, and mixed well. Scintiloscope was used for the quantitative detection of ^14C.
(§4) IC50 values of the compounds of various examples were calculated from the […] at different concentrations.

Another assay deals with SGLT2 (Homo sapiens (Human), UniProt P31639). In words: Activity assay of SGLT2: [14C] methyl α-D-glucopyranoside uptake in SGLT2 transiently transferred HEK293 cells. It is filed as cell-based. The settings on record: 2 hours at 37° C. As for the experimental part:
as §1, §2, §3, §4

Chain of SGLT1 (P13866 whole entry, species assumed): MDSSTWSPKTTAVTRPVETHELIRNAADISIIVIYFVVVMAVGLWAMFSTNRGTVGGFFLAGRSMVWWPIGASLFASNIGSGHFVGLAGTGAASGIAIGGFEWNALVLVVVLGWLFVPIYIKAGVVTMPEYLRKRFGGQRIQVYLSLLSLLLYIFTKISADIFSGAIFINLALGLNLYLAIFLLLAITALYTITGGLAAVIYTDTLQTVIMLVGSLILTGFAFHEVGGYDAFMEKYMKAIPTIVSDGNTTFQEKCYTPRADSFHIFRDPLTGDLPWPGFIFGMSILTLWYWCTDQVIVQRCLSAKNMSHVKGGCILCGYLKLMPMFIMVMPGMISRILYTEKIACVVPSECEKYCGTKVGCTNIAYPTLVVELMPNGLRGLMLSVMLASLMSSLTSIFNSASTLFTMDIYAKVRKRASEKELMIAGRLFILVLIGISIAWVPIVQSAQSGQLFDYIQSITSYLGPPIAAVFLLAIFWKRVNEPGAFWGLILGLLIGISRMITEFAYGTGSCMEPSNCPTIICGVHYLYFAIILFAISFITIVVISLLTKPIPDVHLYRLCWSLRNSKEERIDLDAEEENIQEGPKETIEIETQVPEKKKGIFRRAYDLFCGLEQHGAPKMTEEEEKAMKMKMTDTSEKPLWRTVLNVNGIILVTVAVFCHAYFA
Chain of SGLT2 (P31639 whole entry, species assumed): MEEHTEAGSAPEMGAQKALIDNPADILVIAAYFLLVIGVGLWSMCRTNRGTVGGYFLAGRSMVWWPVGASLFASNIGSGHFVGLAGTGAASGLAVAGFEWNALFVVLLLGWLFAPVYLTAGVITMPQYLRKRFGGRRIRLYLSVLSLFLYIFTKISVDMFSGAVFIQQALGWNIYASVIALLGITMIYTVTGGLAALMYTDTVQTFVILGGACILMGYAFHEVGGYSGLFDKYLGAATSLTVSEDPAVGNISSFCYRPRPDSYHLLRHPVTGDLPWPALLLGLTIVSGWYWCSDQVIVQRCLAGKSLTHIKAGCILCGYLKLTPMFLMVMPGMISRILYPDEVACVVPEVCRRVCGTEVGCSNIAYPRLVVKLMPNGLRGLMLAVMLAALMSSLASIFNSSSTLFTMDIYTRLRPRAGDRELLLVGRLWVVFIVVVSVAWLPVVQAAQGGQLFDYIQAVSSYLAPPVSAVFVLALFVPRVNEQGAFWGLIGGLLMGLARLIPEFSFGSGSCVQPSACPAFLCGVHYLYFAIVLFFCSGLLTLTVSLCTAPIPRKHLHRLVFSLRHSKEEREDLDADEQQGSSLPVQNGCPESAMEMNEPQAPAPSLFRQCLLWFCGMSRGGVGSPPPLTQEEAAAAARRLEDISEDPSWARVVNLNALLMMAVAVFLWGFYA

Turning to `OC[C@@]12CO[C@@](c3ccc(Cl)c(Cc4ccc5c(c4)OCCO5)c3)(O1)[C@H](O)[C@@H](O)[C@@H]2O` [Example 1, (1S,2S,3S,4R,5S)-5-(4-chloro-3-((2,3-dihydrobenzo[b][1,4]dioxin-6-yl)methyl)phenyl)-1-(hydroxymethyl)-6,8-dioxabicyclo[3.2.1]octane-2,3,4-triol], the IC50 (in general, the concentration at which inhibition is half-maximal) was 953 nM against SGLT1 and 0.58 nM on SGLT2.

In the case of `OC[C@@]12CO[C@@](c3ccc(C4CC4)c(Cc4ccc5c(c4)OCCO5)c3)(O1)[C@H](O)[C@@H](O)[C@@H]2O` [Example 2, (1S,2S,3S,4R,5S)-5-(4-cyclopropyl-3-((2,3-dihydrobenzo[b][1,4]dioxin-6-yl)methyl)phenyl)-1-(hydroxymethyl)-6,8-dioxabicyclo[3.2.1]octane-2,3,4-triol], the results for the IC50 at SGLT1 and at SGLT2 were 15.7 nM and 3.67 nM, respectively. Besides, the “inhibition of SGLT1 (conclusion in words)” value (“inhibition of SGLT1” below) against SGLT1 was “inhibited SGLT1”.

`OC[C@H]1S[C@@H](c2cc3c(c(Cc4ccc5c(c4)OCCO5)c2)OCC3)[C@H](O)[C@@H](O)[C@@H]1O` [Example 3, (2S,3R,4R,5S,6R)-2-(7-((2,3-dihydrobenzo[b][1,4]dioxin-6-yl)methyl)-2,3-dihydrobenzofuran-5-yl)-6-(hydroxymethyl)tetrahydro-2H-thiopyran-3,4,5-triol]: the results for the IC50 at SGLT1 and on SGLT2 were 2560 nM and 19.8 nM, respectively.

With `Cc1ccc([C@@H]2S[C@H](CO)[C@@H](O)[C@H](O)[C@H]2O)cc1Cc1ccc2c(c1)OCCO2` [Example 4, (2S,3R,4R,5S,6R)-2-(3-((2,3-dihydrobenzo[b][1,4]dioxin-6-yl)methyl)-4-methylphenyl)-6-(hydroxymethyl)tetrahydro-2H-thiopyran-3,4,5-triol], on SGLT1, 89 nM corresponded to half-maximal inhibition (IC50) and the “inhibition of SGLT1” value is on record as “inhibited SGLT1”. For the same compound, the IC50 against SGLT2 was found to be 132 nM.

With `CCCc1ccc([C@]23OC[C@](CO)(O2)[C@@H](O)[C@H](O)[C@H]3O)cc1Cc1ccc2c(c1)OCCO2` [Example 7, (1S,2S,3S,4R,5S)-5-(3-((2,3-dihydrobenzo[b][1,4]dioxin-6-yl)methyl)-4-propylphenyl)-1-(hydroxymethyl)-6,8-dioxabicyclo[3.2.1]octane-2,3,4-triol], on SGLT1, 17.2 nM corresponded to half-maximal inhibition (IC50) and the “inhibition of SGLT1” value is recorded as “inhibited SGLT1”. The same compound gave an IC50 at SGLT2 of 1.82 nM.

As for `Cc1ccc([C@]23OC[C@](CO)(O2)[C@@H](O)[C@H](O)[C@H]3O)cc1Cc1ccc2c(c1)OCCO2` [Example 8, (1S,2S,3S,4R,5S)-5-(3-((2,3-dihydrobenzo[b][1,4]dioxin-6-yl)methyl)-4-methylphenyl)-1-(hydroxymethyl)-6,8-dioxabicyclo[3.2.1]octane-2,3,4-triol], the values for the IC50 at SGLT1 and against SGLT2 were 1.21 nM and 583 nM, respectively.

For the compound `CCc1ccc([C@]23OC[C@](CO)(O2)[C@@H](O)[C@H](O)[C@H]3O)cc1Cc1ccc2c(c1)OCCO2` [Example 9, (1S,2S,3S,4R,5S)-5-(3-((2,3-dihydrobenzo[b][1,4]dioxin-6-yl)methyl)-4-ethylphenyl)-1-(hydroxymethyl)-6,8-dioxabicyclo[3.2.1]octane-2,3,4-triol], on SGLT1, half-maximal inhibition (IC50) was put at 16.6 nM and the “inhibition of SGLT1” value is “inhibited SGLT1”. This compound also showed an IC50 against SGLT2 of 1.49 nM.
